Assay results reported in patent US20110190235A1, “BORON-CONTAINING SMALL MOLECULES AS ANTIPROTOZOAL AGENTS” (Anacor Pharmaceuticals, Inc., priority 2009, published 2011).
Converted amounts (≈) assume the structure as drawn. Read-outs that look alike come from different tables or passages of the source.

Key:
[1] = test system: TREU 667 strain of T. b. brucei; assay: Chronic CNS Model; assay type: in vivo, T. b. brucei in mice
Method: Mice were infected with 10,000 parasites of the TREU 667 strain of T. b. brucei. Twenty one days post-infection mice were treated with a dose of between 6 and 100 mg/kg of the compound, either BID or QD for 7 days intraperitoneally (IP) or orally (PO). Positive control mice were treated with Diminazene (10 mg/kg, IP) on Day 4 post-infection. Negative control mice were treated with Diminazene (10 mg/kg, PO) on Day 21. Since Diminazene is not able to penetrate the CNS, mice treated at Day 21 are not able to cure the infection. Starting 1 week after the end of treatment, mice are monitored for parasitemia and sacrificed if parasites are detected in the blood. Mice that survive 6 months are considered “cured.”

[2] = test system: Leishmania donovani strain 1S-CL2D axenic amastigotes; assay: Leishmania donovani axenic amastigote in vitro drug sensitivity assay (resazurin); assay type: cell-based; conditions: for Selectivity Index (Ld/L929): L. donovani vs L929; for IC50: Leishmania donovani, 72 hrs incubation
Method: All experiments were conducted with the axenic amastigote-form of the following parasite: Leishmania donovani strain 1S-CL2D from Sudan, World Health Organization (WHO) designation: (MHOM/SD/62/1 S-CL2D). Parasites were cultured in T-25 vented cap flasks and kept in humidified incubators at 37° C. and 5% CO2. The axenic parasite culture media was RPMI-1640/MES/pH 5.5 formulated and prepared as described by Debrabant et. al. (International Journal for Parasitology 2004, Volume 34, page 205-217). To ensure log growth phase, axenic amastigotes were sub-cultured at appropriate dilutions every 2-3 days.
Cultures of axenic amastigotes growing in the log phase were passed through a 22 gauge blunt needle to break up the clumps, diluted 1:10 in RPMI-1640/MES medium and counted using hemocytometer to determine parasite concentration. Amastigotes were diluted to 2×10^5/mL in RPMI-1640/MES medium to generate a 2-fold working concentration for assay. Compounds to be tested were serially diluted in DMSO and 0.5 μL added to 50 μL HMI-9 in triplicate 96-well plates using a Biomek NX liquid handler. Parasites from the diluted stock were added to each well (50 μL) using a Multidrop 384 dispenser to give a final concentration of 1.0×10^5/ml parasites in 0.5% for DMSO. Amastigotes were incubated with compounds for 72 hrs at 37° C. with 5% CO2. Resazurin (10 μL of 12.5 mg/ml stock) from Sigma-Aldrich was added to each well and plates were incubated for an additional 2-3 hrs. Assay plates were read using an EnVision plate reader at an excitation wavelength of 544 nm and emission of 590 nm. Triplicate data points were averaged to generate sigmoidal dose response curve and determine IC50 values using XLfit curve fitting software from IDBS (Guildford, UK).

[3] = test system: bloodstream-form trypanosome T. brucei brucei 427 strain; assay: Trypanosoma brucei brucei high-throughput in vitro drug sensitivity assay (resazurin); assay type: cell-based; conditions: for Selectivity Index (L929 IC50 / T. b. brucei IC50): T. b. brucei vs L929; for IC50: Trypanosoma brucei
[4] = L929 cytotoxicity evaluation (resazurin); assay type: cell-based; conditions: mouse, L929 mouse fibroblast cells; 72 hrs incubation; read-out: Cytotox L-929 IC50
Summary of the method: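 Mouse L929 fibroblasts (1×10^4/mL seeding, attached overnight) were treated 72 h at 37 °C, 5% CO2 with serially diluted compounds in DMSO in D-MEM/10% FBS. Viability read by resazurin fluorescence after 3–4 h (ex 544/em 590 nm); IC50 from sigmoidal fits of single data points.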

[5] = Kinetic solubility by nephelometric (light scattering) method; assay type: physicochemical; conditions: phosphate buffered saline, aqueous buffer, kinetic from dmso stock, PBS pH 7.4
Method: The kinetic solubilities of compounds were estimated using a nephelometric (light scattering) method. Briefly, compounds were serially diluted in DMSO, followed by dilution in PBS pH 7.4. After incubation, the amount of light scattered by a compound at each concentration was measured. […] At concentrations above the solubility limit, the compound precipitates and the precipitant in the well scatters the light, generating a signal. Higher levels of precipitant in a well scatter more light and produce a stronger signal.
A stock solution of compound (25 mM in DMSO) was prepared, and was serially diluted in DMSO in two-fold increments in a row of a 96 well plate to a lowest concentration of 24 μM. A duplicate plate was prepared by transfer of half of the volume of each well to a new plate. Each well containing DMSO solution of the test compound was then diluted further (1:100) with phosphate buffered saline (pH 7.4) to provide aqueous solutions of compound at the following final concentrations: 250, 125, 62.5, 31.3, 15.6, 7.8, 3.9, 2.0, 1.0, 0.5 and 0.2 μM. All liquid handling stages were performed on a Beckman Coulter Biomek NX Laboratory Automation Workstation. Each compound was diluted and tested in duplicate, providing four separate wells at each test concentration.
The test solutions of compound were incubated at room temperature for 90 minutes and then analyzed using a Thermoskan Ascent nephelometric plate reader. The nephelometer protocol included two steps: first, the plate was shaken for 60 seconds at 1200 rpm, then each well of the plate was read in succession with an 800 ms settling delay between measurements. The total measurement time for a single plate was less than 4 minutes.
The four values (in nephelometric units) obtained for each compound at each concentration were averaged and plotted on a log scale versus concentration.

[6] = Pharmacokinetic studies in mice (plasma, brain); assay type: in vivo; conditions: for CL/F / half-life / Cmax / AUC(0-inf) / AUC(0-t): male, CD-1, mouse, 8 mg/kg, oral; for CL/F / half-life: mice (Table 3a); for CL/F: read-out: Oral Clearance Cl/F (converted); for half-life: read-out: t½ (converted); for Cmax / AUC(0-inf) / AUC(0-t): mice, normalized to 25 mg/kg (Table 3a); for AUC(0-inf): read-out: Exposure/trapezoid AUC0-inf; for AUC(0-t): read-out: Exposure/trapezoid AUC0-last; for Fold improvement 69 vs E14: AUC0-inf / Fold improvement 69 vs E14: AUC0-last / Fold improvement 69 vs E14: Cmax / Fold improvement 69 vs E14: Oral Clearance Cl/F / Fold improvement 69 vs E14: t½: mouse, in vivo, po
Method: Male CD-1 mice weighing approximately 25 g received the test article (E19 or 82 or E14 or 69) by either intravenous (IV), oral gavage (OG) or intra-peritoneal (IP) routes. Animals in IV group (6-10 animals, 1-2 per time point) received a single bolus injection of approximately 2 mg/kg of the test article. Animals receiving […], or as 4 repeat doses ([…], 1-2 per time point).
All doses were administered as clear colorless solutions in either: 50% (v/v) PEG400:20% (v/v) ethanol:30% (v/v) carboxymethylcellulose (0.5% w/v in sterile water for injection, WFI), or as in situ sodium salts in 5% (m/v) dextrose:2% (v/v) ethanol in DWI. All dose solutions were delivered at 4 mL/kg. Animals were fasted for at least 4 hours before dosing, and for 2 hours after dosing.
Blood samples and brain tissue were sampled from 1 or 2 animals/timepoint/group immediately before dosing and approximately 0.17, 0.5, 1, 2, 3, 4, 6, 8, 12, 18 and 24 hr after dosing for full pharmacokinetic and tissue analysis, or at 0.5, 2 and 4 hours post dosing to assess early-phase CNS disposition.
Bioanalysis for test article in whole blood, plasma or brain tissue was performed by HPLC with tandem mass spectrometry (LC-MSMS). Whole blood and plasma samples were treated with 3 volumes of either acetonitrile or methanol to precipitate plasma proteins. Treated samples were centrifuged and supernatants removed for analysis. Brain tissues were weighed and homogenized mechanically in the presence of 1 volume of phosphate-buffered saline (PBS). The resulting tissue suspensions were then diluted with a further volume of PBS, and then treated in the same manner as whole blood or plasma.
Extracted samples were assayed for test article by means of LC-MSMS employing reversed-phase chromatography coupled to a triple quadrupole mass spectrometer employing electrospray ionization in the positive ion mode. The analytical column was a Phenomenex Luna 3μ C8 50×2 mm, with an online sample purification step performed on a Phenomenex Synergi 4μ Polar RP 50×2 mm column.
Test articles were eluted using a binary mobile phase gradient comprising 5 mM Ammonium Acetate: 0.1% formic acid in either MeOH or H2O.
Non-compartmental analysis of plasma test article concentration versus time was performed in Microsoft Excel to generate pharmacokinetic parameters including: area under the curve (AUC), clearance (as Cl or Cl/F), volume of distribution (Vdss), half-life (t½), and bioavailability (F).

[7] = read-out: L. donovani axenic amastigotes IC50
[8] = read-out: L. donovani axenic amastigotes IC50 (ug/mL)
[9] = 72 hrs incubation, read-out: T. b. brucei IC50
[10] = 72 hrs incubation, read-out: T.b. brucei IC50

For `CC1(C)OB(O)c2cc(NC(=O)c3ccc(F)cc3C(F)(F)F)ccc21`, the “mice with absence of blood parasites through Day 84” value ([1]; 75 mg/kg BID for 7 days, starting at Day 21 post-infection) was 100%.

With `CC1OB(O)c2cc(NC(=O)c3ccccc3Cl)ccc21` (stereo not shown) [compound 4, 2-Chloro-N-(1-hydroxy-3-methyl-1,3-dihydro-benzo[c][1,2]oxaborol-6-yl)-benzamide] the “Selectivity Index (Ld/L929)” value [2] was 9, the IC50 [2, 7] was 458 nM and the IC50 [2, 8] was 0.138 µg/mL. The “Selectivity Index (L929 IC50 / T. b. brucei IC50)” value [3] was 52, the IC50 [3, 9] was 80 nM and the IC50 [3, 10] was 0.024 µg/mL. The IC50 at 72 h [4] was 1.24 µg/mL (≈ 4.11 µM) and the solubility at 90 min [5] was greater than 200 µM.

With `CC1OB(O)c2cc(NC(=O)c3ccccc3C(F)(F)F)ccc21` (stereo not shown) [compound 2, N-(1-Hydroxy-3-methyl-1,3-dihydro-benzo[c][1,2]oxaborol-6-yl)-2-trifluoromethyl-benzamide] the “Selectivity Index (Ld/L929)” value [2] was 2, the IC50 [2, 7] was 830 nM and the IC50 [2, 8] was 0.278 µg/mL. For the same compound, the “Selectivity Index (L929 IC50 / T. b. brucei IC50)” value [3] was 7, the IC50 [3, 9] was 233 nM and the IC50 [3, 10] was 0.078 µg/mL. The IC50 at 72 h [4] was 0.53 µg/mL (≈ 1.58 µM) and the solubility at 90 min [5] was 3 µM (≈ 1.01 µg/mL).

For `CC1OB(O)c2cc(NC(=O)c3ccc(F)cc3)ccc21` (stereo not shown) [compound 3, 4-Fluoro-N-(1-hydroxy-3-methyl-1,3-dihydro-benzo[c][1,2]oxaborol-6-yl)-benzamide], the “Selectivity Index (Ld/L929)” value [2] was greater than 10, the IC50 [2, 7] was 344 nM and the IC50 [2, 8] was 0.098 µg/mL. The “Selectivity Index (L929 IC50 / T. b. brucei IC50)” value [3] was greater than 200, the IC50 [3, 9] was 175 nM and the IC50 [3, 10] was 0.05 µg/mL. It also gave an IC50 at 72 h [4] greater than 10 µg/mL and a solubility at 90 min [5] of 100 µM (≈ 28.5 µg/mL).

`CC1(C)OB(O)c2cc(NC(=O)c3ccc(F)cc3Cl)ccc21` [compound 69, 2-Chloro-4-fluoro-N-(1-hydroxy-3,3-dimethyl-1,3-dihydro-benzo[c][1,2]oxaborol-6-yl)-benzamide] gave a CL/F ([6]; brain) of 20 mL/min/kg, a half-life ([6]; brain) of 1.4 h and a Cmax ([6]; brain) of 3250 ng/mL. It also gave an AUC(0-inf) ([6]; brain) of 21300 ng·h/mL, an AUC(0-t) ([6]; brain) of 20800 ng·h/mL and a CL/F ([6]; plasma) of 7.32 mL/min/kg. For the same compound, the half-life ([6]; plasma) was 3.7 h, the Cmax ([6]; plasma) was 7670 ng/mL and the AUC(0-inf) ([6]; plasma) was 58000 ng·h/mL. The AUC(0-t) ([6]; plasma) was 56900 ng·h/mL, the “Fold improvement 69 vs E14: AUC0-inf” value ([6]; in brain) was 6.8 fold and the “Fold improvement 69 vs E14: AUC0-last” value ([6]; in brain) was 6.7 fold. For the same compound, the “Fold improvement 69 vs E14: Cmax” value ([6]; in brain) was 1.3 fold, the “Fold improvement 69 vs E14: Oral Clearance Cl/F” value ([6]; in brain) was 6.7 fold and the “Fold improvement 69 vs E14: t½” value ([6]; in brain) was 0.9 fold. The “Fold improvement 69 vs E14: AUC0-inf” value ([6]; in plasma) was 3.8 fold, the “Fold improvement 69 vs E14: AUC0-last” value ([6]; in plasma) was 4.0 fold and the “Fold improvement 69 vs E14: Cmax” value ([6]; in plasma) was 2.1 fold. For the same compound, the “Fold improvement 69 vs E14: Oral Clearance Cl/F” value ([6]; in plasma) was 3.9 fold, the “Fold improvement 69 vs E14: t½” value ([6]; in plasma) was 1.2 fold and the “Selectivity Index (L929 IC50 / T. b. brucei IC50)” value [3] was greater than 35. The IC50 ([3]; 72 h, read-out: T. b. brucei IC50 (nM)) was 845 nM, the IC50 ([3]; 72 h, read-out: T.b. brucei IC50 (ug/mL)) was 0.282 µg/mL and the IC50 at 72 h [4] was greater than 10 µg/mL. The solubility at 90 min [5] was 100 µM (≈ 33.4 µg/mL).

For `CC1OB(O)c2cc(NC(=O)c3ccc(F)cc3C(F)(F)F)ccc21` (stereo not shown) [compound 1], the “Selectivity Index (Ld/L929)” value [2] was 7, the IC50 [2, 7] was 524 nM and the IC50 [2, 8] was 0.185 µg/mL. The “Selectivity Index (L929 IC50 / T. b. brucei IC50)” value [3] was 13, the IC50 [3, 9] was 258 nM and the IC50 [3, 10] was 0.091 µg/mL. The IC50 at 72 h [4] was 1.21 µg/mL (≈ 3.43 µM) and the solubility at 90 min [5] was 50 µM (≈ 17.7 µg/mL).

For `COc1ccc(C(=O)Nc2ccc3c(c2)B(O)OC3C)cc1` (stereo not shown) [compound 5, N-(1-Hydroxy-3-methyl-1,3-dihydro-benzo[c][1,2]oxaborol-6-yl)-4-methoxy-benzamide], the “Selectivity Index (Ld/L929)” value [2] was greater than 93, the IC50 [2, 7] was 360 nM and the IC50 [2, 8] was 0.107 µg/mL. The “Selectivity Index (L929 IC50 / T. b. brucei IC50)” value [3] was greater than 185, the IC50 [3, 9] was 182 nM and the IC50 [3, 10] was 0.054 µg/mL. For the same compound, the IC50 at 72 h [4] was greater than 10 µg/mL and the solubility at 90 min [5] was 100 µM (≈ 29.7 µg/mL).

For `N=C(N)c1ccc(/N=N/Nc2ccc(C(=N)N)cc2)cc1` [Diminazene, diminazene, reference compound], the “Day by which all animals relapsed to exhibit blood parasitemia” value ([1]; treated on Day 21 (10 mg/kg)) was no more than 49 days.
